Source: patent US10881642B2, “Autophagy enhancer and use thereof” (Industry-Academic Cooperation Foundation, Yonsei University, priority 2016, dated 2021)

Test system: ob/ob mice
Test: In vivo autophagic flux and TFEB-related gene expression in liver
Experimental: FIG. 7A is the result of the experiment in which ob/ob mice were peritoneally injected with 30 mg/kg leupeptin and then after 1 hr, vehicle control or MSL compound were peritoneally administered. Three hours post administration, the liver lysates were prepared and immunoblotted. The numbers above the bands indicates fold changes normalized to beta actin bands. FIG. 7B indicates the concentration of mRNA of TFEB related genes measured by performing RT-PCT using a total RNA isolated from liver sample treated same as above except that Leupeptin was not administered. The values represent mean±S.D of fold changes compared to control mice (vehicle control) obtained from three mice.
Screening of autophagy enhancer. […] Luciferase assay. Firefly and Renilla luciferase assays were conducted using the Dual-Luciferase Reporter Assay System (Promega) according to the manufacturer's recommendation. In brief, cells were lysed in 1× lysis buffer and subjected to a single round of freezing/thawing. Firefly luciferase was determined after mixing 5 μl of lysate with 25 μl of Luciferase Assay Reagent II. Renilla luciferase was then determined after further addition of 20 ul of Stop&Glo Reagent. Cell culture and media and drugs treatment. […] Cytotoxicity was determined by the measurement of LDH release in cell culture media using the LDH kit (Roche), according to the protocol from the manufacturer. […] Imaging and image quantification. […] Formation of acidic vesicular organelles was quantitated by staining the cells with acridine orange (Invitrogen, 5 ug/ml, 10 min). […] Cells or tissues were solubilized in lysis buffer supplemented with protease and phosphatase inhibitors and protein concentration was measured by the Bradford method. Ten to 30 micrograms were loaded on 4-12% Bis-Tris gel (NUPAGE, Invitrogen) or 8-15% SDS-PAGE, transferred to PVDF membranes and analyzed by western blot using the ECL method (Pierce). […] Protein levels were quantified by using ImageJ software analysis. […]

CSc1oc(-c2ccccc2)nc1S(=O)(=O)c1ccc(F)cc1 [MSL]
autophagic activity in the liver measured after leupeptin administration (after 8 weeks of administration): increased | LC3-I to -II conversion in the liver (after pretreatment with leupeptin): increased | expression of TFEB-regulated genes (liver, compared to controls): significantly higher
